One test concerns A. baumannii. The test can be described thus: Antibiogram of ESKAPE pathogens. It counts as cell-based. Conditions: column assigned by order in flattened table. The source says: (§1) Supplementary Table 1. Antibiogram of ESKAPE pathogens used in this study.
(§2) Bacteria susceptible to all (blue color) or intermediate/resistant to at least one (red color) of antibiotics per class following the EUCAST breakpoints. Black color is shown if the susceptibility to agents in that class is not assessed. Values are minimal inhibition concentrations (MIC) in µg/ml or for Chloramphenicol in diameter (mm). […]

The next test deals with E. coli. The test can be described thus: Antibiogram of ESKAPE pathogens. Type of test: cell-based. Conditions: column assigned by order in flattened table; for MIC: Escherichia coli.
Source text: as §1, §2

The next test deals with K. pneumoniae. Conditions: one K. pneumoniae strain, which one not assignable.
Source text: as §1, §2

Another test relates to ESKAPE pathogens. Nature of the test: organism not typed. Conditions: one strain of A. baumannii, P. aeruginosa or E. coli, not assignable.
Source text: as §1, §2

The test system of test [1] is multidrug resistant bacteria belonging to the ESKAPE pathogen panel. It counts as cell-based. Conditions: broth microdilution, ESKAPE panel. The method, then:
Bactericidal activity was assessed by broth microdilution assay. […] After incubation, 100 µl of 6% TSB (w/v) were added and absorbance was measured at 600 nm (Tecan, Switzerland) and monitored for 18 h. Afterward, 100 µl per well were plated on LB agar to determine the numbers of viable bacteria microbiologically. Bactericidal activity is expressed as the LC99.9, the lowest concentration that killed ≥99.9 % of bacteria.

Test [2] deals with A. baumannii DSM30007 4-MRGN. As for the experimental part:
Bactericidal activity was assessed by broth microdilution assay. Log-phase bacteria were collected by centrifugation (2500 rpm, 10 min, 4 °C), washed twice with 10 mM sodium phosphate buffer containing 1% (w/v) TSB and the optical density at 600 nm was adjusted to 0.1. Approximately 5 × 10^5 CFU/ml bacteria were incubated with serial peptide concentrations (1.17–150 µM) in a final volume of 100 µl in 10 mM sodium phosphate buffer containing 1% (w/v) TSB for 2 h at 37 °C. After incubation, 100 µl of 6% TSB (w/v) were added and absorbance was measured at 600 nm (Tecan, Switzerland) and monitored for 18 h. Afterward, 100 µl per well were plated on LB agar to determine the numbers of viable bacteria microbiologically. Bactericidal activity is expressed as the LC99.9, the lowest concentration that killed ≥99.9 % of bacteria.

The test system of the next test is S. Typhimurium. It counts as cell-based. The conditions noted are these: for inhibition of S. Typhimurium growth (in words): radial diffusion assay; for diameter of inhibition zone: 1 µg peptide/well, 2.5 mm = empty well. As for the experimental part: (§3) Antimicrobial activity was analyzed by radial diffusion assay. Log-phase bacteria were cultivated for up to 18 h in TSB (TSB, Becton Dickinson, USA), washed and diluted to 4 × 10^6 CFU in 10 ml agar. Bacteria were incubated in 10 ml of 10 mM sodium phosphate, pH 7.4, containing 0.3 mg/ml of TSB powder and 1% (w/v) low EEO-agarose (AppliChem). 1 µg of each lipopeptide was pipetted into punched wells in a final volume of 4 µl and diffused into the gel for 3 h at 37 °C. After that, a nutrient-rich gel with 6% TSB (w/v) and 1% agarose in 10 mM sodium phosphate buffer was poured on top of the first gel and incubated for up to 24 h at 37 °C. Then the diameter of inhibition zones was measured.

Test [3] concerns several pathogenic bacteria. The test can be described thus: Radial diffusion assay, all tested strains. It counts as cell-based. As for the experimental part: as §3
The subject of a further test is S. aureus. It counts as cell-based. Conditions: 1 µg peptide/well, 2.5 mm = empty well. The method, then: as §3
The next test has as its system P. aeruginosa. It counts as cell-based. The conditions noted are these: 1 µg peptide/well, 2.5 mm = empty well. The method, then: as §3
The next test relates to C. rodentium. It counts as cell-based. The conditions noted are these: 1 µg peptide/well, 2.5 mm = empty well. The method, then: as §3

≈ marks a conversion by molar mass, not a printed value. Where two headings read alike, the source gives them in different places. Positions of bridges follow the written chain, without caps; N, C: chain ends. Non-standard residues stand in square brackets, D forms with d. Residues, ends and D or L forms follow the SMILES beside them. *: point of attachment. Palmitoyl = CCCCCCCCCCCCCCCC(=O)*; X3 = CC[C@H](C)CCCCC(=O)*; Dab = NCC[C@H](N)C(=O)O Some results are limits rather than exact numbers.

On to `CC(C)(O/N=C(\C(=O)N[C@@H]1C(=O)N2C(C(=O)[O-])=C(C[n+]3ccccc3)CS[C@H]12)c1csc(N)n1)C(=O)O` [Ceftazidim], for which the “MIC (antibiogram)” value against A. baumannii (strain DSM30007) was ≥ 64 µg/mL; in the test with E. coli (strain DSM682), ≥ 64 µg/mL; against E. coli (strain DSM8695) it was ≤ 1 µg/mL.
Take `CC[C@H](C)CCCCC(=O)N[C@@H](CCN)C(=O)N[C@H](C(=O)N[C@@H](CCN)C(=O)N[C@H]1CCNC(=O)[C@H]([C@@H](C)O)NC(=O)[C@H](CCN)NC(=O)[C@H](CCN)NC(=O)[C@H](CC(C)C)NC(=O)[C@@H](CC(C)C)NC(=O)[C@H](CCN)NC1=O)[C@@H](C)O` [Colistin] (X3-[Dab]T[Dab][Dab][Dab][dL]L[Dab][Dab]T; lactam 4-C (inferred); N-terminus assumed): the entries for the “MIC (antibiogram)” value against K. pneumoniae and with ESKAPE pathogens were 0.25 µg/mL (≈ 0.214 µM) and 1 µg/mL (≈ 0.855 µM), respectively.
In the case of `CCCCCCCCCCCCCCCC(=O)N[C@@H](CCCNC(=N)N)C(=O)NCC(=O)N[C@@H](CCCCN)C(=O)N[C@@H](C)C(=O)N[C@@H](CCCCN)C(=O)N[C@@H](CS)C(=O)N[C@@H](CS)C(=O)N[C@@H](CCCCN)C(=O)O` [Pam-2] (Palmitoyl-RGKAKCCK-OH; C-terminus assumed), in [1], the “bactericidal activity (in words)” value is listed as “highly effective”. Besides, in [2], the “growth inhibition of colistin- and tigecycline-resistant isolate (in words)” value is recorded as “inhibited the growth”. For the same compound, the “inhibition of S. Typhimurium growth (in words)” value in the test on S. Typhimurium is recorded as “consistently inhibited”. Moreover, the “antimicrobial activity (in words)” value in test [3] is “potent inhibition”.
For the compound `CN(C)c1cc(NC(=O)CNC(C)(C)C)c(O)c2c1C[C@H]1C[C@H]3[C@H](N(C)C)C(O)=C(C(N)=O)C(=O)[C@@]3(O)C(O)=C1C2=O` [Tigecycline], the MIC is 4 µg/mL (≈ 6.83 µM) with A. baumannii (Acinetobacter baumannii, strain ECII); ≤ 0.5 µg/mL against E. coli (strain DSM682); ≤ 0.5 µg/mL with E. coli (strain DSM8695).
Turning to “RGKAKCCK [Octapeptide, the C-terminal eight amino acids of human β-defensin 1]”, the “diameter of inhibition zone” value in the test on S. aureus (experiment 1 of 3) is 6 mm; in the test with S. aureus (experiment 2 of 3), 7 mm; in the test on S. aureus (experiment 3 of 3), 6.5 mm; in the test on P. aeruginosa (experiment 1 of 3), 3.5 mm; in the test with P. aeruginosa (experiment 2 of 3), 4 mm; in the test on P. aeruginosa (experiment 3 of 3) it was 4 mm. Moreover, the “diameter of inhibition zone” value in the test with C. rodentium (experiment 1 of 3) worked out at 5.5 mm; in the test on C. rodentium (experiment 2 of 3) it was 5 mm; in the test on C. rodentium (experiment 3 of 3), 5.5 mm; in the test on S. Typhimurium (experiment 1 of 3), 2.5 mm; with S. Typhimurium (experiment 2 of 3), 2.5 mm; in the test with S. Typhimurium (experiment 3 of 3), 2.5 mm. The “inhibition of S. Typhimurium growth (in words)” value with S. Typhimurium is “failed to inhibit”.

The values are drawn from PMC7794397, “Curbing gastrointestinal infections by defensin fragment modifications without harming commensal microbiota” (Communications Biology, 2021).
